Values joined by “and” are separate entries in the source; they are usually repeats but may differ in a detail not shown here. Identical values can stand only once.
Key:
[1] = test system: miR-21; assay: miR-21 luciferase sensor assay in Hela cells; assay type: cell-based; conditions: Hela cells
Procedure: The compounds were assessed for miR-21 inhibitory activity in a luciferase assay. A microRNA luciferase sensor construct was engineered using pGL3-MCS2 (Promega). The construct was introduced into Hela cells to test the ability of anti-miR compounds to inhibit activity of miR-21. In this assay, miR-21 present in the Hela cells binds to its cognate site(s) in the luciferase sensor construct, and suppresses luciferase expression. When the appropriate anti-miR is introduced into the cells, it binds to miR-21 and relieves suppression of luciferase expression. Thus, in this assay anti-miRs that are effective inhibitors of miR-21 expression will cause an increase in luciferase expression.
Hela cells (ATCC), stably transfected with a luciferase construct engineered to contain a sequence complementary of miR-21, were seeded in T-170 flasks (BD Falcon) at 3.5*10^6 cells/flask. Hela cells were grown in Dulbecco's Modified Eagle Medium with High Glucose (Invitrogen).
Each flask of Hela cells was transfected with 0.5 ug of a phRL sensor plasmid (Promega) expressing Renilla to be used in normalization. Hela cells were transfected using 20 ul Lipofectamine 2000/flask (Invitrogen). After 4 hours of transfection, cells were washed with PBS and trypsinized Hela cells were plated at 40 k/well in 24 well plates (BD Falcon) and left overnight.
Hela cells were transfected with anti-miRs using Lipofectin (Invitrogen) at 2.5 ul Lipofectin/100 nM ASO/ml Opti-MEM I Reduced Serum Medium (Invitrogen) for 4 hours. After ASO transfection, Hela cells were refed with Dulbecco's Modified Eagle Medium with High Glucose (Invitrogen).
Hela cells are passively lysed and luciferase activity measured using the Dual-Luciferase Reporter Assay System (Promega).
The luciferase assay was performed to test the ability of anti-miRs with the nucleoside patterns described herein to inhibit the activity of miR-21. Results were compared to a ‘mock’ treatment, in which cells received no anti-miR treatment. The experiment was repeated and results of two experimental replicates are shown in the following Table B, as the luciferase value normalized to beta-galactosidase activity.
The luciferase assay was performed as described herein to test the ability of anti-miRs in Table F to inhibit the activity of miR-21. Results were compared to a ‘mock’ treatment, in which cells received no anti-miR treatment. The experiment was repeated and results of two experimental replicates are shown in the following Table D, as fold change in luciferase value relative to the mock treatment.

[2] = test system: UUO model of kidney fibrosis; assay: Unilateral ureteral obstruction (UUO) model of kidney fibrosis: kidney collagen 1A1 and collagen 3A1 expression by real-time PCR; assay type: in vivo, mice; conditions: for Collagen 3A1 (Normalized Expression) Mean / Collagen 1A1 (Normalized Expression) Mean / Collagen 1A1 (Normalized Expression) / Collagen 3A1 (Normalized Expression): Table K, UUO mice, kidney at day 11; for Collagen 3A1 (Normalized Expression) Mean / Collagen 1A1 (Normalized Expression) Mean: group mean; for Collagen 3A1 (Normalized Expression) Mean / Collagen 1A1 (Normalized Expression) Mean / reduction in collagen expression (in words): 20 mg/kg at days -3, -1, +5; for Collagen 3A1 (Normalized Expression) Mean: UUO-PBS mean 87.2; for Collagen 1A1 (Normalized Expression) Mean: UUO-PBS mean 114.9; for Collagen 1A1 (Normalized Expression) / Collagen 3A1 (Normalized Expression): individual animals, 20 mg/kg at days -3, -1, +5 (prophylactic), real-time PCR normalized to GAPDH then sham, 20 mg/kg; for reduction in collagen expression (in words): meta-analysis of UUO studies
Procedure: Unilateral ureteral obstruction (UUO) is a well-established experimental model of renal injury leading to interstitial fibrosis, and thus is used as an experimental model that is reflective of human kidney disease. UUO is induced by surgically ligating a single ureter. As fibrosis is characterized by an increase in collagen, the presence and extent of kidney fibrosis may be determined by measuring collagen content. Both collagen 1A1 (Col 1A1) and collagen 3A1 (Col 3A1) are measured to assess collagen content. Kidney fibrosis may be visualized by staining tissue samples with picro-sirius red to detect increases in collagen content. Kidney fibrosis may also be observed by measuring the amount of hydroxyproline, which is a major component of collagen, in a sample.
The cEt-containing anti-miR-21 compounds found to be active in the luciferase assay were tested in the UUO model of kidney fibrosis. 25919 comprising 2′-MOE and 2′-fluoro modifications is known to inhibit miR-21 activity in vivo and was included as a positive control. Groups of 8 animals each were treated as follows: UUO only, UUO with PBS, or UUO with anti-miR-21 compound. Relative to the day of the UUO procedure, PBS or anti-miR-21 compound was administered at days −3, −1, and +5. Anti-miR-21 compounds were administered at a dose of 20 mg/kg. As the anti-miR compounds were administered prior to the UUO procedure, this dosing regimen is considered a prophylactic treatment. At day 11, animals were sacrificed and kidney was isolated for measurement of collagen expression. Collagen expression was measured by real-time PCR and normalized first to GAPDH and then to the sham control animals.
The UUO study was repeated to confirm the activity of 25070. The anti-miR was administered subcutaneously at a dose of 20 mg/kg.
Control treatment groups included UUO only (sham) and UUO with PBS administered subcutaneously. An additional control group included UUO with Tween-MC/20 carrier perorally. 25070 administered subcutaneously at dose of 20 mg/kg at 5 days prior to, 2 days prior to, and 3 days after, the UUO procedure. Irbesartan was administered perorally on daily on days 0 through 7 following the UUO procedure. Animals were sacrificed on Day 10 following the UUO procedure. Kidney tissue was collected for measurement of collagen 1A1 and collagen 3A1 expression.
Compounds 25220 and 25221, as well as 25923, were tested in the UUO model for their effects on fibrosis. Groups of 8 animals each were treated as follows: sham surgery, UUO with PBS, UUO with 25220, UUO with 25221, or UUO with 25923. Relative to the day of the UUO procedure, PBS or anti-miR-21 compound was administered at days −5, −3, and +3. Anti-miR-21 compounds were administered at a dose of 20 mg/kg. As the anti-miR compounds were administered prior to the UUO procedure, this dosing regimen is considered a prophylactic treatment. At day 10, animals were sacrificed and kidney was isolated for measurement of collagen expression. Collagen expression was measured by real-time PCR and normalized to GAPDH.

[3] = Ex vivo liver homogenate stability assay (HPLC-TOF MS); conditions: 24 hours at 37° C.; for ex vivo (liver) N %↓: full-length compound; for ex vivo (liver) % Endo / ex vivo (liver) % N − 1: 5 μM oligonucleotide in liver homogenate; for ex vivo (liver) % N − 1: compound lacking the 3′-terminal nucleoside
[4] = In vivo stability of compound in kidney tissue after administration to mice; conditions: kidney tissue after administration; for in vivo (kidney) N − 1 (%): compound lacking the 3′-terminal nucleoside; for in vivo (kidney) N (%): full-length compound
[5] = test system: ischemia reperfusion injury/nephrectomy (IR/Nx) model; assay: Ischemia reperfusion injury/nephrectomy (IR/Nx) model: urinary albumin to creatinine ratio; assay type: in vivo, mouse; conditions: 20 mg/kg subcutaneously on days 2, 3, 4, and 8, urine on day 9
Description: An ischemia reperfusion injury/nephrectomy (IR/Nx) model is created in the mouse through temporary unilateral clamping of an artery in one kidney, which leads to tubule damage, inflammation, and fibrosis, followed by removal of the second kidney at a later timepoint. In this model, the acute kidney dysfunction phase is useful to test candidate agents for the treatment of acute kidney injury (i.e. up to about the first 5 days), and the later phases of kidney dysfunction are useful to model chronic fibrosis (i.e. after about the first 5 days).
Unilateral IR was induced for a period of 30 minutes. Treatment groups were as follows: sham IR procedure; IR with PBS administered subcutaneously; IR with mismatched control 25109 administered subcutaneously at a dose of 20 mg/kg; IR with anti-miR-21 compound 25070 administered subcutaneously at a dose of 20 mg/kg; and IR with anti-miR-21 compound 25923 administered subcutaneously at a dose of 20 mg/kg. PBS or anti-miR was administered on days 2, 3, 4, and 8 following IR. On day 8, the healthy kidney was removed by nephrectomy from each animal, and animals were sacrificed on day 9. Just prior to sacrifice, urine was collected by direct bladder puncture.
Urinary albumin to creatinine ratio was measured in the urine from each mouse. […] The geometric mean of the albumin to creatinine ratio in each group of mice was 16 μgAlb/mgCr (nephrectomy-only control), 127 μgAlb/mgCr (IR/Nx, PBS control), 140 μgAlb/mgCr (IR/Nx, 25109 control), 40 μgAlb/mgCr (IR/Nx, 25070), and 31 μgAlb/mgCr (IR/Nx, 25923). Blood urea nitrogen and serum creatinine levels were similar across all IR/Nx mice, and were elevated relative to nephrectomy-only control mice (data not shown).

[6] = 500 nM oligonucleotide, two experimental replicates
[7] = 5 μM oligonucleotide in liver homogenate (50 mg tissue per ml)

Substance | luciferase value normalized to beta-galactosidase activity ([1]; 4 nM oligonucleotide) | luciferase value normalized to beta-galactosidase activity ([1]; 20 nM oligonucleotide) | luciferase value normalized to beta-galactosidase activity ([1]; 100 nM oligonucleotide) | luciferase value normalized to beta-galactosidase activity [1, 6] | luciferase value normalized to beta-galactosidase activity ([1]; .16 nM oligonucleotide) | luciferase value normalized to beta-galactosidase activity ([1]; .8 nM oligonucleotide) | inhibition of miR-21 activity in the luciferase assay (in words) [1] | Collagen 3A1 (Normalized Expression) Mean [2] | Collagen 1A1 (Normalized Expression) Mean [2] | Collagen 1A1 (Normalized Expression) [2] | Collagen 3A1 (Normalized Expression) [2] | reduction in collagen expression (in words) [2] | ex vivo (liver) N %↓ [3, 7] | ex vivo (liver) % Endo [3] | ex vivo (liver) % N − 1 [3] | in vivo (kidney) N − 1 (%) [4] | in vivo (kidney) N (%) [4] | compound lacking the 3′-terminal nucleoside [3, 7] | compound present as the full-length compound [3, 7] | geometric mean of the urinary albumin to creatinine ratio [5]
AECSAETECSAEGETECSTEGEAEUSAEAEGECSTEAE (ACATCAGTCTGATAAGCTA; anti-miR; sugar and backbone modifications, code letters not given here, further chemistry not given here) [Compound 25072] | 76 | 86 | 115 | 143 | 40 | 49 | inhibition of miR-21 in a dose-dependent manner | 65.5 | 113.8 | 96.2 and 85.7 and 127.4 and 100.0 and 159.2 and 120.5 and 108.0 | 69.4 and 54.5 and 58.8 and 69.2 and 93.8 and 65.8 and 46.9 | did not consistently demonstrate a reduction in collagen expression | – | – | – | – | – | – | – | –
AECSATCSAGTCSTGAUSAAGCSUsAS (ACATCAGTCTGATAAGCTA; sugar and backbone modifications) [Compound 25221] | – | – | – | – | – | – | – | – | – | – | – | – | 3% | 3% | 0% | 4 ± 1% | 76 ± 4% | – | – | –
AECSATCSAGTCSTGAUSAAGCSTAS (antisense ACATCAGTCTGATAAGCTA; cEt and 2'-MOE nucleosides) [Compound 25923] | – | – | – | – | – | – | – | – | – | – | – | – | 17% | 2-3% | 13% | 14 ± 5% | 58 ± 3% | about 18% | About 68% | –
AEASATCSTGTCSTCAUSAATASAAE [Compound 25109, reference compound] | – | – | – | – | – | – | – | – | – | – | – | – | – | – | – | – | – | – | – | 140 μgAlb/mgCr
TE^MeCEAEAECSAETECSAEGETECSTEGEAEUSAEAEGECSTEAE (TCAACATCAGTCTGATAAGCTA; modified nucleosides and phosphorothioate, code letters not given here, further chemistry not given here) [Compound 25068] | 64 | 86 | 97 | 122 | 45 | 54 | inhibition of miR-21 in a dose-dependent manner | 60.6 | 96.4 | 84.7 and 75.1 and 85.5 and 89.1 and 90.4 and 125.8 and 124.4 | 64.8 and 56.2 and 47.4 and 76.2 and 57.0 and 63.0 and 59.6 | active in reducing collagen expression, but to a lesser extent than 25070 | – | – | – | – | – | – | – | –
TE^MeCAACSATCSAGTCSTGAUSAAGCSTAE (TCAACATCAGTCTGATAAGCTA; modified nucleosides with 5-methyl C, code letters not given here, further chemistry not given here) [Compound 25082] | 112 | 147 | 176 | 202 | 70 | 89 | inhibition of miR-21 in a dose-dependent manner | 59.1 | 91.7 | 122.2 and 188.3 and 102.5 and 67.6 and 40.6 and 44.1 and 73.8 and 94.7 | 62.9 and 78.9 and 82.2 and 43.8 and 32.6 and 34.3 and 75.8 and 62.5 | did not consistently demonstrate a reduction in collagen expression | – | – | – | – | – | – | – | –
AECSATCSASGTCSUSGAUSASAGCSUsAE (ACATCAGTCTGATAAGCTA; sugar and backbone modifications) [Compound 25220] | – | – | – | – | – | – | – | – | – | – | – | – | 3% | 3% | 0% | 16 ± 6% | 67 ± 16% | – | – | –
